US11459330B2, “Substituted bicyclic heterocyclic compounds as PRMT5 inhibitors” (LUPIN LIMITED, priority 2017, dated 2022)
pIC50: −log10 of the molar value.

Columns and labels:
PRMT5:MEP50 = PRMT5:MEP50 (Homo sapiens, UniProt O14744); assay: PRMT5 biochemical HTRF assay (Biochemical Assay Protocol 1 / 2); settings: biotinylated H4R3 substrate, 1 μM SAM, protocol 1 or 2 not given, activity range 300 pM to 950 pM, read-out: IC50 (PRMT5 inhibition), activity range
Method: Biochemical Assay Protocol 1
(§1) Inhibitory effect of compounds on PRMT5 was assessed using HTRF detection technology in biochemical assay. Biotinylated H4R3 (residues 1-21) was used as a substrate. Compounds were pre-incubated with 15-25 ng PRMT5:MEP50 per well of a 384-well plate for 30 min at room temperature in the assay buffer containing 20 mM Bicine, pH 7.6, 25 mM NaCl, 2 mM DTT, 0.01% Chicken albumin and 0.01% Tween-20. Reaction was initiated by adding 1 μM of SAM and 50 nM biotinylated H4R3. Total assay volume was 15 μL. Reaction was continued for 120 min at room temperature. Then detection solution containing Streptavidin-Eu cryptate, anti-rabbit IgG-XL-665, Histone H4R3 Dimethyl Symmetric (H4R3me2s) Polyclonal Antibody, all prepared in HTRF detection buffer was added and further incubated for 30 min at room temperature. HTRF signal was recorded in PHERAStar microplate reader. Ratio of signal obtained at 665 nm and 620 nm was used to compute the percent inhibition of compound as follows % Inhibition=100−((Test Ratio−Negative control Ratio)/(Positive control Ratio−Negative control Ratio)*100) where Positive control=PRMT5+SAM+H4R3 Negative control=PRMT5+H4R3 Biochemical Assay Protocol 2
as §1, with “2.5” for “15-25”, “4 h” for “120 min”, “control=PRMT5+H4R3” for “control=PRMT5+H4R3 Biochemical Assay Protocol 2”

PANC-1 cells = assay: Anti-cancer assay (Panc-1), cell viability CellTiterGlo; assay type: cell-based; settings: Homo sapiens, PANC-1, 168 h, 7 days; for IC50: activity range, lower bound in pM, upper bound in nM; for pIC50: activity range 20 nM to 100 nM
Method: Anticancer Activity Assay
Z-138 cells were seeded at a density of 2000-3000 cells per well in culture media (IMDM+10% FBS). PANC-1 (ATCC, CRL-1469™) and MIA PaCa-2 (ATCC, CRL-1420™) cells were seeded at a density of 200-300 cells per well in culture media (DMEM+10% FBS). Cells were seeded in opaque, flat bottomed tissue culture grade 96-well plates and Z-138 cells (suspension) were seeded and treated on the same day with various concentrations of test compounds. PANC-1 and MIA PaCa-2 cells, being adherent, were kept for overnight settlement at standard cell culture conditions (37° C., 5% CO2). On the following day, cells were treated with various concentrations of test compounds. Cells were treated with test compounds for a period of 96 h, 7 days and 10 days, for Z-138 cells, PANC-1 cells and MIA PaCa-2 cells, respectively. Cell viability was assessed using CellTiterGlo™ (Promega, USA) as per manufacturer's instructions. Relative Light Units (RLU) were read in Synergy™ 2 reader (Biotek, USA). The assay measures cellular ATP as an indicator of cell viability. RLU is proportional to the number of viable cells in the respective well.
% inhibition of cell viability was calculated relative to the vehicle control samples containing media with 0.1% DMSO alone as per the formula below. (Avg. of Untreated Control−Avg. of Test)×100 Avg. of Untreated Control
The IC50 values of individual compounds were calculated with Non Linear Regression Analysis using Graph Pad Prism (Graph Pad software, Inc, USA).
Anti-Cancer Assay (Panc-1)

PRMT5:MEP50, sequence (O14744 whole entry): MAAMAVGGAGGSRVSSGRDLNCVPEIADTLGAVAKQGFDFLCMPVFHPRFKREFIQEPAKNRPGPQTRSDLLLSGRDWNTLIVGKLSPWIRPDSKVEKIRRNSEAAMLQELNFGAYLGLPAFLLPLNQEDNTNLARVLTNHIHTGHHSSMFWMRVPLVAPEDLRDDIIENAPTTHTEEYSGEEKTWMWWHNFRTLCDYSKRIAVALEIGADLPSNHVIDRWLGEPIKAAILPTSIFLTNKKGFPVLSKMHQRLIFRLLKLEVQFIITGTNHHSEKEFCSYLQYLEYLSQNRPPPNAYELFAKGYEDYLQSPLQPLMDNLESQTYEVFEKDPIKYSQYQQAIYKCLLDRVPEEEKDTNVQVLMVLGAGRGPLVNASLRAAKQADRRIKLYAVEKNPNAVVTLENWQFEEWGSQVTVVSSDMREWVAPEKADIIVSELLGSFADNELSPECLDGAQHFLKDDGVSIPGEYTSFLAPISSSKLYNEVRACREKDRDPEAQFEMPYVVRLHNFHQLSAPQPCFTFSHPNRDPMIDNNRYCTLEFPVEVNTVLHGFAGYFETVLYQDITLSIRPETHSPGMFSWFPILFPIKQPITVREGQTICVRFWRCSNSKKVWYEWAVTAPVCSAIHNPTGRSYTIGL
PRMT5:MEP50, sequence (Q9BQA1 whole entry partner): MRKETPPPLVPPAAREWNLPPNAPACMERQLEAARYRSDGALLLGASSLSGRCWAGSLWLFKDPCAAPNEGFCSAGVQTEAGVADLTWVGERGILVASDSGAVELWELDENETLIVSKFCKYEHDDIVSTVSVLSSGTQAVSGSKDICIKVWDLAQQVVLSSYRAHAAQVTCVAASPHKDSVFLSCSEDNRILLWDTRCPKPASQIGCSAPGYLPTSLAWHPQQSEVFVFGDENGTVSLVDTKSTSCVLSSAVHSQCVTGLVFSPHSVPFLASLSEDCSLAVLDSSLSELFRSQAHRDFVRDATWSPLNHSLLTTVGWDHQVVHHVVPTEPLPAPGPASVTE

SMILES | pIC50 (PRMT5:MEP50) | IC50 (PANC-1 cells) [pM] | pIC50 (PANC-1 cells)
CC(Cc1ccc2cc(Br)c(N)nc2c1)C1=C[C@@H](n2ccc3c(N)ncnc32)[C@H](O)[C@@H]1O (single isomer, unassigned) [Compound-7a] | 9.02 to 9.52 | 300 to 20000 | 
CC(Cc1ccc2cc(Cl)c(N)nc2c1)C1=C[C@@H](n2ccc3c(N)ncnc32)[C@H](O)[C@@H]1O (single isomer, unassigned) [Compound-34b] | 9.02 to 9.52 | 300 to 20000 | 
Cc1ncnc2c1ccn2[C@@H]1C=C(C(C)Cc2cc(F)c3cc(Cl)c(N)nc3c2)[C@@H](O)[C@H]1O (single isomer, unassigned) [Compound-35a] |  | 300 to 20000 | 
Cc1ncnc2c1ccn2[C@@H]1C=C(C(C)Cc2cc(F)c3cc(Cl)c(N)nc3c2)[C@@](C)(O)[C@H]1O (single isomer, unassigned) [Compound-36a] | 9.02 to 9.52 |  | 
CC(Cc1cc(F)c2cc(Br)c(N)nc2c1)C1=C[C@@H](n2ccc3c(N)ncnc32)[C@H](O)[C@@H]1O (single isomer, unassigned) [Compound-45a] | 9.02 to 9.52 |  | 
CC(Cc1ccc2cc(Br)c(N)nc2c1)[C@@]12C[C@@H]1[C@@H](n1ccc3c(N)ncnc31)[C@H](O)[C@@H]2O (stereo partly drawn) [76b, (1S,2R,3S,4R,5S)-1-((S)-1-(2-Amino-3-bromoquinolin-7-yl)propan-2-yl)-4-(4-amino-7H-pyrrolo[2,3-d]pyrimidin-7-yl)bicyclo[3.1.0]hexane-2,3-diol] |  |  | 7.00 to 7.70
Nc1nc2cc(CCC3=C[C@@H](n4ccc5c(N)ncnc54)[C@H](O)[C@@H]3O)ccc2cc1Br [Compound-1, (1S,2R,5R)-3-(2-(2-Amino-3-bromoquinolin-7-yl)ethyl)-5-(4-amino-7H pyrrolo[2,3-d]pyrimidin-7-yl)cyclopent-3-ene-1,2-diol] | 9.02 to 9.52 | 300 to 20000 | 
Nc1nc2cc(CCC3=C[C@@H](n4ccc5c(N)ncnc54)[C@H](O)[C@@H]3O)ccc2cc1Cl [Compound-2, (1S,2R,5R)-3-(2-(2-amino-3-chloroquinolin-7-yl)ethyl)-5-(4-amino-7H-pyrrolo[2,3-d]pyrimidin-7-yl)cyclopent-3-ene-1,2-diol] | 9.02 to 9.52 | 300 to 20000 | 
Nc1nc2cc(CCC3=C[C@@H](n4ccc5cnccc54)[C@H](O)[C@@H]3O)cc(F)c2cc1Cl [Compound-15, (1S,2R,5R)-3-(2-(2-Amino-3-chloro-5-fluoroquinolin-7-yl)ethyl)-5-(1H-pyrrolo[3,2-c]pyridin-1-yl)cyclopent-3-ene-1,2-diol] | 9.02 to 9.52 |  | 
Nc1nc2cc(OCC3=C[C@@H](n4ccc5c(N)ncnc54)[C@H](O)[C@@H]3O)cc(F)c2cc1Cl [Compound-18, (1S,2R,5R)-3-(((2-amino-3-chloro-5-fluoroquinolin-7-yl)oxy)methyl)-5-(4-amino-7H-pyrrolo[2,3-d]pyrimidin-7-yl)cyclopent-3-ene-1,2-diol] | 9.02 to 9.52 | 300 to 20000 | 
Cc1ncnc2c1ccn2[C@@H]1C=C(CCc2ccc3cc(Cl)c(N)nc3c2)[C@@H](O)[C@H]1O [Compound-21, (1S,2R,5R)-3-(2-(2-amino-3-chloroquinolin-7-yl)ethyl)-5-(4-methyl-7H-pyrrolo[2,3-d]pyrimidin-7-yl)cyclopent-3-ene-1,2-diol] | 9.02 to 9.52 | 300 to 20000 | 
Nc1nc2cc(CCC3=C[C@@H](n4ccc5c(N)ncnc54)[C@H](O)[C@@H]3O)ccc2cc1F [Compound-23, (1S,2R,5R)-3-(2-(2-Amino-3-fluoroquinolin-7-yl)ethyl)-5-(4-amino-7H-pyrrolo[2,3-d]pyrimidin-7-yl)cyclopent-3-ene-1,2-diol] | 9.02 to 9.52 |  | 
Nc1nc2cc(CCC3=C[C@@H](n4ccc5c(N)ncnc54)[C@H](O)[C@@H]3O)cc(Cl)c2cc1Cl [Compound-29, (1S,2R,5R)-3-(2-(2-amino-3,5-dichloroquinolin-7-yl)ethyl)-5-(4-amino-7H-pyrrolo[2,3-d]pyrimidin-7-yl)cyclopent-3-ene-1,2-diol] |  |  | 7.00 to 7.70
Nc1ncc2ccn([C@@H]3C=C(CCc4ccc5cc(Cl)c(N)nc5c4)[C@@H](O)[C@H]3O)c2n1 [Compound-30, (1S,2R,5R)-3-(2-(2-amino-3-chloroquinolin-7-yl)ethyl)-5-(2-amino-7H-pyrrolo[2,3-d]pyrimidin-7-yl)cyclopent-3-ene-1,2-diol] |  | 300 to 20000 | 
C[C@@]1(O)C(CCc2cc(F)c3cc(Cl)c(N)nc3c2)=C[C@@H](n2ccc3c(N)ncnc32)[C@@H]1O [Compound-37, (1S,2R,5R)-3-(2-(2-amino-3-chloro-5-fluoroquinolin-7-yl)ethyl)-5-(4-amino-7H-pyrrolo[2,3-d]pyrimidin-7-yl)-2-methylcyclopent-3-ene-1,2-diol] | 9.02 to 9.52 | 300 to 20000 | 
CC(Cc1cc(F)c2cc(Cl)c(N)nc2c1)C1=C[C@@H](n2ccc3c(N)ncnc32)[C@H](O)[C@]1(C)O (stereo partly drawn) [Compound-38, (1S,2R,5R)-3-(1-(2-amino-3-chloro-5-fluoroquinolin-7-yl)propan-2-yl)-5-(4-amino-7H-pyrrolo[2,3-d]pyrimidin-7-yl)-2-methylcyclopent-3-ene-1,2-diol] | 9.02 to 9.52 | 300 to 20000 | 
CC[C@@]1(O)C(CCc2cc(F)c3cc(Cl)c(N)nc3c2)=C[C@@H](n2ccc3c(N)ncnc32)[C@@H]1O [Compound-40, (1S,2R,5R)-3-(2-(2-amino-3-chloro-5-fluoroquinolin-7-yl)ethyl)-5-(4-amino-7H-pyrrolo[2,3-d]pyrimidin-7-yl)-2-ethylcyclopent-3-ene-1,2-diol] |  | 300 to 20000 | 
CCc1ncnc2c1ccn2[C@@H]1C=C(CCc2cc(F)c3cc(Cl)c(N)nc3c2)[C@@H](O)[C@H]1O [Compound-41, (1S,2R,5R)-3-(2-(2-amino-3-chloro-5-fluoroquinolin-7-yl)ethyl)-5-(4-ethyl-7H-pyrrolo[2,3-d]pyrimidin-7-yl)cyclopent-3-ene-1,2-diol] |  | 300 to 20000 | 
Nc1nc2cc(CCC3=C[C@@H](n4ccc5c(N)ncnc54)[C@H](O)[C@@H]3O)cc(F)c2cc1Br [Compound-43, (1S,2R,5R)-3-(2-(2-Amino-3-bromo-5-fluoroquinolin-7-yl)ethyl)-5-(4-amino-7H-pyrrolo[2,3-d]pyrimidin-7-yl)cyclopent-3-ene-1,2-diol] | 9.02 to 9.52 | 300 to 20000 | 
Cc1ncnc2c1ccn2[C@@H]1C=C(CCc2cc(F)c3cc(Br)c(N)nc3c2)[C@@H](O)[C@H]1O [Compound-44, (1S,2R,5R)-3-(2-(2-Amino-3-bromo-5-fluoroquinolin-7-yl)ethyl)-5-(4-methyl-7H-pyrrolo[2,3-d]pyrimidin-7-yl)cyclopent-3-ene-1,2-diol] | 9.02 to 9.52 |  | 
Nc1ccc2cc(F)c(CCC3=C[C@@H](n4ccc5c(N)ncnc54)[C@H](O)[C@@H]3O)cc2n1 [Compound-46, (1S,2R,5R)-3-(2-(2-Amino-6-fluoroquinolin-7-yl)ethyl)-5-(4-amino-7H-pyrrolo[2,3-d]pyrimidin-7-yl)cyclopent-3-ene-1,2-diol] |  | 300 to 20000 | 
Cc1cc2ccc(CC[C@@]34C[C@@H]3[C@@H](n3ccc5c(N)ncnc53)[C@H](O)[C@@H]4O)cc2nc1N [Compound-54, (1R,2R,3S,4R,5S)-1-(2-(2-Amino-3-methylquinolin-7-yl)ethyl)-4-(4-amino-7H-pyrrolo[2,3-d]pyrimidin-7-yl) bicyclo[3.1.0]hexane-2,3-diol] |  | 300 to 20000 | 
